# According to patent US20240398749A1, “INHALABLE PROTEASE INHIBITORS FOR USE IN THE PREVENTION AND/OR TREATMENT OF FIBROTIC AUTOIMMUNE OR INFLAMMATORY LUNG DISEASES” (priority 2021, published 2024):
# Several values for one entry are separate records, joined by “and”; a condition that tells them apart may be missing. Equal values may be shown once. Read-outs that look alike come from different tables or passages of the source.
# What was measured:
# [1] = cited from earlier work
# [2] = tested on: human peripheral blood cells (PBI); assay: Chromosome aberration test
# [3] = tested on: A549 cells; assay type: cell-based
# [4] = Nebulizer test / cascade impactor measurements with M-neb dose+; assay type: physicochemical
# [5] = tested on: Th17 differentiation; conditions: rats; cited from earlier work
# [6] = in vivo, po; cited from earlier work
# [7] = tested on: Wistar rats; assay: Dose range finding study, 14 days nose-only inhalation; assay type: in vivo; conditions: for lung with a spongy consistency (animals affected): females
# Description: The purpose of this study was to perform a dose range finding (DRF) study using 14 days nose-only-inhaled Aloxistatin in rats. Possible side effects of Aloxistatin were characterized based on clinical observations, body weight, hematology, clinical pathology, macroscopic examination and histopathology of selected organs (respiratory tract, heart, kidneys, liver and spleen). Additionally, the setup of chemical analysis method for toxicokinetic analysis was established.
# For the study, 64 Wistar rats [Crl:Wistar(Han)] received the test item at doses of 22.67, 68 or 227 μg/kg bw for 14 consecutive days via nose-only inhalation. Ethanol ≥96% was used as vehicle. Animals of the main study were sacrificed on […].
# All animals were clinically observed in their cages at least once a day. Individual body weights were determined twice weekly. Blood samples for hematology and clinical chemistry were withdrawn before the exposure and on day 14. Necropsy, including a macroscopic evaluation of selected organs, was performed on day 15 or day 29 followed by histopathology of preselected organs. All macroscopic changes were recorded. Blood and lung sampling for setup of chemical analysis method for toxicokinetic analysis was performed on day 1 and 15 and upon sacrifice (day 2 and 15), respectively.
# [8] = tested on: A549 cells; assay: IL-8 release from A549 cells, spontaneous or TGFbeta-induced; assay type: cell-based; conditions: TGFbeta stimulation, 24 h, 10 μg/ml E64D
# [9] = tested on: THP1 cells (macrophage-like cell line); assay: IL-8 release from stimulated THP1 cells; assay type: cell-based; conditions: IL-1 or TNF/IL-1 stimulated cells, 24 hours
# Procedure: This stimulation corresponds to a pro-inflammatory response. The supernatants were then removed, and the IL-8 release was measured.
# [10] = tested on: Vero e6-cells; conditions: concentrations up to 100 μM
# [11] = tested on: Salmonella typhimurium strains TA 1535, TA 1537, TA 98, TA 100, and the Escherichia coli strain WP2 uvrA; assay: Reverse mutation assay (plate incorporation test)
# [12] = tested on: fibroblasts; assay type: cell-based
# [13] = tested on: IL-17 release; assay: IL-17 release from human mononuclear cells in whole blood stimulated with cytokines; assay type: cell-based
# [14] = tested on: Th17-lymphocytes; assay: Measurement of Th17-lymphocytes by flow cytometry; assay type: cell-based, human
# [15] = tested on: SARS-CoV-2; assay type: cell-based; conditions: HEK293-ACE2, MOI 5, 100 μM
# [16] = tested on: Mouse-Coronavirus; conditions: Mouse-Coronavirus model systems; cited from earlier work
# [17] = tested on: rats; assay: Toxicology study, 14-day inhalational applications; conditions: inhalation on 14 consecutive days
# [18] = tested on: SARS-CoV-2; assay type: cell-based; conditions: A549, MOI 5, 100 μM
# [19] = tested on: pseudovirus; assay: Pseudovirus inoculation of human ACE2 transgenic mice, bioluminescence assay; assay type: in vivo; conditions: pre-treated via tail vein injection 2 days prior to virus inoculation; 1 day post infection
# [20] = tested on: SARS-CoV-2; conditions: E64d added to the TMPRSS2 inhibitor Camostat; cited from earlier work
# [21] = physchem; conditions: organic solvent or mixture
# [22] = tested on: mice; conditions: cited from earlier work
# [23] = 22.67, 68 or 227 μg/kg bw, 14 days nose-only inhalation
compound,measurement,setting,value
"CCOC(=O)[C@H]1O[C@@H]1C(=O)N[C@@H](CC(C)C)C(=O)NCCC(C)C [E64D, aloxistatin]",serum AST and ALT activities,"[1]; rat, in vivo",rose dramatically
same,time of minimum liver GSH level after administration,"[1]; rat, in vivo",5 h
same,liver glutathion (GSH) levels,[1]; rats,obvious drop
same,aberrant cells (gaps excluded),"[2]; after 4 h of treatment, both without and with S9-mix",only one aberrant cell
same,structural chromosome aberrations,[2]; treated PBL,nearly complete absence of structural chromosome aberrations
same,TGF-beta induced release of alpha-smooth muscle actin (aSMA),[3],inhibits the TGF-beta induced release
same,TGF-beta induced release of collagen 1,[3],inhibits the TGF-beta induced release
same,TGFbeta-induced collagen production,[3],lowers the TGFbeta-induced collagen production of A549 in a dose-dependent manner
same,TGFbeta-induced collagen release at highest dose,[3],almost goes back to the initial value
same,aerosol output (fraction of actually inhaled E64d),[4]; 0.34 mg/ml solution,80%
same,aerosol output (fraction of actually inhaled E64d),[4]; 34 mg/ml solution,63%
same,fine particle fraction (<5 μm),"[4]; all concentrations tested (0.34, 3.4 and 34 mg/ml)",> 95%
same,aerosol release rate,[4]; concentration of the solution 340 ug/ml,0.108 mg/min
same,aerosol release rate,[4]; concentration of the solution 3.4 mg/ml,1 mg/min
same,aerosol release rate,[4]; concentration of the solution 34 mg/ml,8.7 mg/min
same,cumulative active compound deposition,"[4]; particle size distribution about 0.5-3 μm, impactor assays",> 99%
same,Th17 differentiation,[5],suppresses Th17 differentiation in a dose-dependent manner
same,dose absorbed,[6],at least 60%
same,body weight,[7]; [23],no statistical differences between the groups
same,changes in clinical chemistry parameters,[7]; [23],considered incidental
same,clinical observations,[7]; [23],no clinical observations were noted
same,mortality,[7]; [23],No animal was found dead or killed moribund
same,lung with a spongy consistency (animals affected),[7]; low dose group,1/5
same,lung with a spongy consistency (animals affected),[7]; medium dose group,1/5
same,slightly enlarged lung-associated lymph nodes (animals affected),"[7]; male animals, medium dose group, macroscopic examination",2/5
same,histopathological examination,"[7]; respiratory tract, lymph nodes, heart, kidneys, liver, spleen, after 14 days and after 14 days recovery",no treatment-related findings were detected
same,TGFbeta-induced IL-8 release,[8],block the induction almost completely
same,IL-8 release,[9],clearly lowers the IL-8 release
same,cytotoxicity,[10],non-toxic
same,precipitation in the overlay agar on the incubated agar plates,[11],5000 μg/plate
same,toxic effects (reduction in the number of revertants),"[11]; all strains, with and without metabolic activation, up to 5000 μg/plate",No toxic effects
same,increase in revertant colony numbers,"[11]; five tester strains, any dose level, with and without S9 mix",No substantial increase
same,mutagenicity,[11]; reverse mutation assay conclusion,non-mutagenic
same,IL-17 induced proliferation and differentiation of fibroblasts,[12],inhibiting the IL-17 induced proliferation and differentiation of fibroblasts
same,release of the cytokine IL-17,[13],can be inhibited
same,polarization of Th2-lymphocytes,[14],polarize Th2-lymphocytes into Th1-lymphocytes
same,Th1 cells,[14]; co-incubation with E64D,dose-dependently up-regulates
same,Th17 and Th17.1 cells,[14]; co-incubation with E64D,dose-dependently down-regulates
same,Treg lymphocytes,[14]; co-incubation with E64D,upregulation of Treg lymphocytes
same,percentage of Th17 cells,"[14]; stimulation with IC-beads, with or without cytokine mix, whole blood lymphocytes and T-lymphocytes from bronchoalveolar lavage",reduces the percentage of Th17 cells
same,cell lysis,[15],effectively inhibited
same,virus replication of SARS-CoV-2,[15],effectively inhibited
same,virus replication,[16],effective inhibition of virus replication
same,"No-Observed-Adverse-Effect-Level (NOAEL), pulmonary dose",[17],413 μg/kg bw
same,cell lysis,[18],effectively inhibited
same,virus replication of SARS-CoV-2,[18],effectively inhibited
same,bioluminescence activity (virus replication),[19],decrease in bioluminescence activity
same,inhibition of virus entry,[20],additive efficacy
same,solubility,[21],≤ 68000 µg/mL and ≤ 199000 µM
CC(C)C[C@H](NC(=O)[C@H]1O[C@@H]1C(=O)O)C(=O)NCCCCN=C(N)N [E64],emphysematous changes,[22],markedly attenuated emphysematous changes
